Our source for the Papp and inhibition values is ChEMBL document CHEMBL4043168, “The design and SAR of a novel series of 2-aminopyridine based LRRK2 inhibitors” (Bioorg Med Chem Lett, 2017).

Series [1] deals with MDR1. Briefly: Apparent permeability in MDCK cells harboring MDR1. The class given is ADME, cell-based, Canis lupus familiaris. The conditions noted are these: dog.
In series [2] the target is Kinase suppressor of Ras 2 (Homo sapiens) (UniProt Q6VAB6). Briefly: Inhibition of KSR2 activation Loop (SKNVFYDNGK) in human PBMC at 1 uM.
For series [3], the target named is Serine/threonine-protein kinase Nek8 (Homo sapiens) (UniProt Q86SG6). Nature of the series: Inhibition of NEK8 conserved Lys2 (DLKTQNILLDK) in human PBMC at 1 uM.
The target in series [4] is Mitogen-activated protein kinase kinase kinase 7 (Homo sapiens) (UniProt O43318). Nature of the series: Inhibition of TAK1 conserved Lys2 (DLKPPNLLLVAGGTVLK) in human PBMC at 0.1 uM.
In series [5] the target is Dual specificity mitogen-activated protein kinase kinase 3 (Homo sapiens) (UniProt P46734). Briefly: Inhibition of MAP2K3 conserved Lys2 (DVKPSNVLINK) in human PBMC at 1 uM.
Series [6] concerns the target T1, Tyrosine-protein kinase JAK3 (Homo sapiens) (UniProt P52333).
T1 sequence (whole entry): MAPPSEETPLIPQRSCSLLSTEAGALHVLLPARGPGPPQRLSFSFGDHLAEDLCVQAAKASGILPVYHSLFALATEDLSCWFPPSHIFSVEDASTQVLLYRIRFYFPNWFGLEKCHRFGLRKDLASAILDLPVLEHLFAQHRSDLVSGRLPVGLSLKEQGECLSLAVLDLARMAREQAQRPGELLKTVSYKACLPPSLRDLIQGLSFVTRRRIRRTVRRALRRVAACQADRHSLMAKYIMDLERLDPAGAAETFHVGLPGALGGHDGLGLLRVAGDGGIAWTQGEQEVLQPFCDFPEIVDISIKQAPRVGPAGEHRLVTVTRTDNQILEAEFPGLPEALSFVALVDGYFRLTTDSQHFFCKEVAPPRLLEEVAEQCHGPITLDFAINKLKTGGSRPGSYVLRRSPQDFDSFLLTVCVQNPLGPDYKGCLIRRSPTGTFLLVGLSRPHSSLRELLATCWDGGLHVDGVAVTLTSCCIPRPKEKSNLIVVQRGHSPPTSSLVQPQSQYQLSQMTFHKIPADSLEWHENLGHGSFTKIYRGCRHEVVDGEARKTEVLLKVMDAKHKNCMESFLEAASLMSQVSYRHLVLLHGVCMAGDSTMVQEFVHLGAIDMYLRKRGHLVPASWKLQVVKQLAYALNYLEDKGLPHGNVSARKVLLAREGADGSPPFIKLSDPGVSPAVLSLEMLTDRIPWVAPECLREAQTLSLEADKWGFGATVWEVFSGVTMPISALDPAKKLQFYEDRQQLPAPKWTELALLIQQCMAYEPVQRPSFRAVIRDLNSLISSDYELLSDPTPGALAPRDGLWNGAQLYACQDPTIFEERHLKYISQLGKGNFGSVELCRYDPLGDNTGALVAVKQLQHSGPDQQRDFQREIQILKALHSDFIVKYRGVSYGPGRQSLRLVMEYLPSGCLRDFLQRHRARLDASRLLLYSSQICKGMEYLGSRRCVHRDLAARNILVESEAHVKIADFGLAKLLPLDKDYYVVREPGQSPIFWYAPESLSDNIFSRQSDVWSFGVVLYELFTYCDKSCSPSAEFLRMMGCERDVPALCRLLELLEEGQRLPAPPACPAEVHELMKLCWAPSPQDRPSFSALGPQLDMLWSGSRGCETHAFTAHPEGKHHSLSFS
Briefly: Inhibition of JAK3 domain2 activation Loop (IADFGLAKLLPLDKDYYVVR) in human PBMC at 1 uM.

For series [7], the species on record is Homo sapiens. Briefly: Inhibition of p70S6K conserved Lys2 (DLKPENIMLNHQGHVK) in human PBMC at 0.1 uM.
The target of series [8] is RAC-alpha serine/threonine-protein kinase (Homo sapiens) (UniProt P31749). Briefly: Inhibition of AKT1 labeling at ATP binding site (GTFGKVILVK) in human PBMC at 1 uM.
The target in series [9] is T2, Serine/threonine-protein kinase 3 (Homo sapiens) (UniProt Q13188).
T2 sequence (whole entry): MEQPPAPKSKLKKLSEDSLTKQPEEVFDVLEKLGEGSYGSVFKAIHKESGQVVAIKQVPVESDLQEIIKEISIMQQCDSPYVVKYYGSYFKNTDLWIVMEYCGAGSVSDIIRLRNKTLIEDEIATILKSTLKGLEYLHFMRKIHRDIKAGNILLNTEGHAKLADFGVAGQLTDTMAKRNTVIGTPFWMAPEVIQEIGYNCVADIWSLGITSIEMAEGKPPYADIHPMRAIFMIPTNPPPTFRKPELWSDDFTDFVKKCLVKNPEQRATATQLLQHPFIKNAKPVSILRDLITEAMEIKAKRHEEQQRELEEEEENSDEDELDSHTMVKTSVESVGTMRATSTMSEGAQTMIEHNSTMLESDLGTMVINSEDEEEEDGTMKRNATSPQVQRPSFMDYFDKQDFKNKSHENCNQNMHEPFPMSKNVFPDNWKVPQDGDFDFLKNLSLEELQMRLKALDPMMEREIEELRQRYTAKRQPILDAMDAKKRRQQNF
Briefly: Inhibition of MST2 conserved Lys2 (DIKAGNILLNTEGHAK) in human PBMC at 1 uM.

Series [10] addresses Calcium/calmodulin-dependent protein kinase type II subunit gamma (Homo sapiens) (UniProt Q13555). Briefly: Inhibition of CaMK2g labeling at conserved Lys2 (DLKPENLLLASK) in human PBMC at 1 uM.
Series [11] addresses Serine/threonine-protein kinase Nek9 (Homo sapiens) (UniProt Q8TD19). Nature of the series: Inhibition of NEK9 conserved Lys2 (DIKTLNIFLTK) in human PBMC at 1 uM.
The target of series [12] is Activated CDC42 kinase 1 (Homo sapiens) (UniProt Q07912). Briefly: Inhibition of ACK labeling at ATP binding site (TVSVAVKCLKPDVLSQPEAMDDFIR) in human PBMC at 1 uM.
Chain of Activated CDC42 kinase 1 (Homo sapiens) (Q07912 whole entry, looked up): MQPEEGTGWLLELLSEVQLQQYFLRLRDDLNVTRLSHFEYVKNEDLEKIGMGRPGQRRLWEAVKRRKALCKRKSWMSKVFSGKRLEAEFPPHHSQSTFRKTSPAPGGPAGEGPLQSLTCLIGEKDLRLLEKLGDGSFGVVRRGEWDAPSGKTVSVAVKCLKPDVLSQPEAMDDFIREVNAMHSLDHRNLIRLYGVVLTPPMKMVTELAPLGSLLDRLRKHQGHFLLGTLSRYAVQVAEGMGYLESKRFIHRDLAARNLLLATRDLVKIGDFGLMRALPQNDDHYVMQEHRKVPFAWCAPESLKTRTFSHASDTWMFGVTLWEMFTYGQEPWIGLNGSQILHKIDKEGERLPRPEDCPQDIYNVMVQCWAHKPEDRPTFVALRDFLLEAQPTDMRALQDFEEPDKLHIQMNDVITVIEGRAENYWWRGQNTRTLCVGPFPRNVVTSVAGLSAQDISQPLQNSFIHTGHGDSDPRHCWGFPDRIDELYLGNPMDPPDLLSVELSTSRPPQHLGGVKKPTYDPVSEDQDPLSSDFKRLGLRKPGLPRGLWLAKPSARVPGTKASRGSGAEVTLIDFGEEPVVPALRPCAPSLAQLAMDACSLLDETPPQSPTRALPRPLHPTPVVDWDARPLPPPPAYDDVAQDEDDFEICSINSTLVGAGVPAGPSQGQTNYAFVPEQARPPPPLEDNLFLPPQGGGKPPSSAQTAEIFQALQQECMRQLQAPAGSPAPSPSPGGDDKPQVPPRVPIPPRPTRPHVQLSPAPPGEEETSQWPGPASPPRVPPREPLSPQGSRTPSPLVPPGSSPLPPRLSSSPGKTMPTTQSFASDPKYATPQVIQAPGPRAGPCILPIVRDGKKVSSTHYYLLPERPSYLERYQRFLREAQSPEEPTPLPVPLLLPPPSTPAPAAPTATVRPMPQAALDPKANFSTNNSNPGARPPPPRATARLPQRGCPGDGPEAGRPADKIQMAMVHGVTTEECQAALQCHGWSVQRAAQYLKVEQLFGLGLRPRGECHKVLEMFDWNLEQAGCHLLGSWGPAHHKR

Chain of RAC-alpha serine/threonine-protein kinase (Homo sapiens) (P31749 whole entry): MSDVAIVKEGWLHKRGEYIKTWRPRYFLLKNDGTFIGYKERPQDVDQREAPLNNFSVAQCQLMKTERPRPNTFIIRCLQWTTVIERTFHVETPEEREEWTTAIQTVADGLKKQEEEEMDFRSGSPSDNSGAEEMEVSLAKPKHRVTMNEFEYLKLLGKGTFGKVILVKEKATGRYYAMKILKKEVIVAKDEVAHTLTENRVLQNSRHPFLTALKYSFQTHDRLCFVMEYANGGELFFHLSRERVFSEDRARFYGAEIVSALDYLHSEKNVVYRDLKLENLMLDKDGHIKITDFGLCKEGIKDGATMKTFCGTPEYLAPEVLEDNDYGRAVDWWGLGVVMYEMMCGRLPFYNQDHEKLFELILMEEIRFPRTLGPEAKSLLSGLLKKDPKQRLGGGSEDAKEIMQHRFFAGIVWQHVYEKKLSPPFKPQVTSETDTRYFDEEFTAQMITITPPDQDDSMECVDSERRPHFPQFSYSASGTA
Chain of Dual specificity mitogen-activated protein kinase kinase 3 (Homo sapiens) (P46734 whole entry): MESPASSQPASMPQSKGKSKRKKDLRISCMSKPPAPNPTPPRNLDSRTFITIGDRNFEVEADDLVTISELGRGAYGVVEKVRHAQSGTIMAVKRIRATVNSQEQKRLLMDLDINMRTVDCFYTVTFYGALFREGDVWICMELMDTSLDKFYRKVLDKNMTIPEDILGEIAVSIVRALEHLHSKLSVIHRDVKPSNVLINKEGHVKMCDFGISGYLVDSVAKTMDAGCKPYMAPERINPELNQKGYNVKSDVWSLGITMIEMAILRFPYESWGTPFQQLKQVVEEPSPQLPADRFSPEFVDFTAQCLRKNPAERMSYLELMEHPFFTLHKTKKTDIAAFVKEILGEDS
Chain of Kinase suppressor of Ras 2 (Homo sapiens) (Q6VAB6 whole entry): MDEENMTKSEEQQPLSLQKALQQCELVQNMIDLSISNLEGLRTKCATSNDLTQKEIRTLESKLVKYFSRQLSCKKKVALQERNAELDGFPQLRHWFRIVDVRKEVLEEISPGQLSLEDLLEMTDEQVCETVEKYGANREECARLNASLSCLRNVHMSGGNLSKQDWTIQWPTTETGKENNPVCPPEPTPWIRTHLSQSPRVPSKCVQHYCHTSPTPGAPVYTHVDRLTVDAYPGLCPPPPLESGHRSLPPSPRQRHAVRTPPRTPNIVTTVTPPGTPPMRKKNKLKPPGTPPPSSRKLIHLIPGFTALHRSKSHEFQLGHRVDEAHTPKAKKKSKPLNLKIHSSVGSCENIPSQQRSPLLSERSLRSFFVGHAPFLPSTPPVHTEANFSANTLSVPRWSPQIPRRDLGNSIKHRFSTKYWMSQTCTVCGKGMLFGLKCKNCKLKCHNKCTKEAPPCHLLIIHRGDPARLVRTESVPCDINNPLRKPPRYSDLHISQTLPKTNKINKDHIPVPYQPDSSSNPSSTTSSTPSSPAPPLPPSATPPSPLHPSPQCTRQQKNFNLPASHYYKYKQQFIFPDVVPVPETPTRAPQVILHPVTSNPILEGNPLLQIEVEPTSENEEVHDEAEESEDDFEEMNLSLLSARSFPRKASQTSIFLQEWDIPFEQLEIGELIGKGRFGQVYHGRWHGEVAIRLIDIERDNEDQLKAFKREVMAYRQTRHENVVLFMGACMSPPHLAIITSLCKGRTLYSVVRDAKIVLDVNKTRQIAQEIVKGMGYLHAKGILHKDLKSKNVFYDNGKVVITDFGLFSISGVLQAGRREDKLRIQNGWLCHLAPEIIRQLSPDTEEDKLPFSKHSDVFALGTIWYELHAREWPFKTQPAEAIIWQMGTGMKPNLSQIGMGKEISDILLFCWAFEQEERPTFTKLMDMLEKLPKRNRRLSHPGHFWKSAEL
Chain of Calcium/calmodulin-dependent protein kinase type II subunit gamma (Homo sapiens) (Q13555 whole entry): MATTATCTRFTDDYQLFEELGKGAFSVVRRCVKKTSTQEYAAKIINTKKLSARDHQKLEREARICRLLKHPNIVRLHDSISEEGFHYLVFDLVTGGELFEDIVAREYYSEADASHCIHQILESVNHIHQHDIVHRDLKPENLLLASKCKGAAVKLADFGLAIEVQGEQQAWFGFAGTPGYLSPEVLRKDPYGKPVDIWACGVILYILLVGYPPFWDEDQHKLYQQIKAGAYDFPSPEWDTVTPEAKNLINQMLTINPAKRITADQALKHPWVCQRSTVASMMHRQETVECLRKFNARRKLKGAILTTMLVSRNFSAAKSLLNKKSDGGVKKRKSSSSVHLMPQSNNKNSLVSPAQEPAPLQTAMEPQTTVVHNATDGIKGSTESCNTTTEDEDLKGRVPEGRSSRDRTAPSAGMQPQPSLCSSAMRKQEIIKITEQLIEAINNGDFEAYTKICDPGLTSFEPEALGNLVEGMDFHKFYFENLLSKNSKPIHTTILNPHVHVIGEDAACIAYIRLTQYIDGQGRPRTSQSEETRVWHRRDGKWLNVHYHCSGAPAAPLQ
Chain of Serine/threonine-protein kinase Nek9 (Homo sapiens) (Q8TD19 whole entry): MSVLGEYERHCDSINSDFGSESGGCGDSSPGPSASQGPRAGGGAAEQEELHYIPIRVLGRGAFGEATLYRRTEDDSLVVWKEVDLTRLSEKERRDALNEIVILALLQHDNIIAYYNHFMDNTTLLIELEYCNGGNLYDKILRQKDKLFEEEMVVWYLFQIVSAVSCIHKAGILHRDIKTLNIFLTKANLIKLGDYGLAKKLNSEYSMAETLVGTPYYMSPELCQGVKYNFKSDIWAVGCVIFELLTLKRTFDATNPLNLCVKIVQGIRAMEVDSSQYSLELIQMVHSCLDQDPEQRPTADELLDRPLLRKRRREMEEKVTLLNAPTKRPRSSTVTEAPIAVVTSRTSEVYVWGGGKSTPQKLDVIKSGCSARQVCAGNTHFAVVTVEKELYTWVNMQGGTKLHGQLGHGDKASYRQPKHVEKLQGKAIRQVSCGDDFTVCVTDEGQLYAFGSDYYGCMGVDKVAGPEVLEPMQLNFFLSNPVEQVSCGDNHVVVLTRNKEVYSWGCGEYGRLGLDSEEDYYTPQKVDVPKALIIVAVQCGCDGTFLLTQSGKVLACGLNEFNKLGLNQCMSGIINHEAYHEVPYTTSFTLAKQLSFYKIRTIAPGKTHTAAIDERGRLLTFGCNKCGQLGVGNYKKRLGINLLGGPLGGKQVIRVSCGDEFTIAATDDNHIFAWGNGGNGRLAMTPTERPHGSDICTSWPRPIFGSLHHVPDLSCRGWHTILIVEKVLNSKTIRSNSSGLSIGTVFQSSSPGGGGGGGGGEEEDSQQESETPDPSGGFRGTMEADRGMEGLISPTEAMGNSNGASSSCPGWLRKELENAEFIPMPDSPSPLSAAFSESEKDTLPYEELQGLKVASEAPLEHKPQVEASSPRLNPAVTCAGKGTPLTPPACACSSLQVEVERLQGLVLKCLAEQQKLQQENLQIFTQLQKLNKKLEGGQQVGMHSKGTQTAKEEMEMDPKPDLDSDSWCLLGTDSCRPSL
Chain of Serine/threonine-protein kinase Nek8 (Homo sapiens) (Q86SG6 whole entry): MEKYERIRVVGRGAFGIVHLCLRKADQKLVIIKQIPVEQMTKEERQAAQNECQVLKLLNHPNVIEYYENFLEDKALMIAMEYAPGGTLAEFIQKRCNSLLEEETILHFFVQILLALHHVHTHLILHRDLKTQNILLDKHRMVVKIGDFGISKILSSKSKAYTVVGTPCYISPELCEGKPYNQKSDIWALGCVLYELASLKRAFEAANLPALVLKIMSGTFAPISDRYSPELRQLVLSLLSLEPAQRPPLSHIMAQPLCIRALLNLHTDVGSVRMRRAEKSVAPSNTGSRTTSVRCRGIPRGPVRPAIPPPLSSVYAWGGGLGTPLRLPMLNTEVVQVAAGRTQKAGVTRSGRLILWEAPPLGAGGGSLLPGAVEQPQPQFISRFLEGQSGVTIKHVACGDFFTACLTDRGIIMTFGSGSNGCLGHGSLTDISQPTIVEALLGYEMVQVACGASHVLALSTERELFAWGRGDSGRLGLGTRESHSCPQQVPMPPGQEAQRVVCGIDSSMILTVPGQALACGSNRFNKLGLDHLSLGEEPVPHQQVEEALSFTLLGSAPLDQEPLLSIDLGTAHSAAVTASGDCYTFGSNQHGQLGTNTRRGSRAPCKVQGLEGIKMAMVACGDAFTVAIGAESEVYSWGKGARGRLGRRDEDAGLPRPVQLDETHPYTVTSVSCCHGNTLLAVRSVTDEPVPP

Take `CC(C)n1cc(-c2cc(-c3ccc(CN4CCOCC4)cc3)cnc2N)nn1`: the Papp in series [1] stood at 26.3 ×10⁻⁶ cm/s. Also, the inhibition in series [2] was 20.1%; in [3] it was 17.1%; in [4] it was -0.4%; in [5], -9.2%; in [6], 7.8%; in series [7], 25.3%. Besides, the inhibition in [8] was 27.4%; in [9] it was 0%; in series [10], -0.4%; in series [11], 25.5%; in [12], -5.7%.

A word on the Papp: it is the rate of passage across a membrane or cell layer, normalised by area and donor concentration. As usually defined, the inhibition is the drop in the measured response relative to a control, in per cent.
